Earlier results in patent publication US20260115234A1, “PRODUCTION & SECRETION OF AUXIN-LIKE MOLECULES IN BACTERIA” (SNIPR Biome ApS, priority 2023, published 2026).
≈ marks a conversion by molar mass, not a printed value.

system: RFP reporter in strain TG1; settings: relative fluorescence of plasmids in strain TG1 grown in LB media to saturation

Molecule	Measured Strength (Anderson Score)
BBa_J23107: Anderson Promoter Collection promoter, Seq ID No: 12 (DNA TTTACGGCTAGCTCAGCCCTAGGTATTATGCTAGC; expressed or natural sequence)	0.36
BBa_J23112: Anderson Promoter Collection promoter, Seq ID No: 17 (DNA CTGATAGCTAGCTCAGTCCTAGGGATTATGCTAGC; expressed or natural sequence)	0
BBa_J23113: Anderson Promoter Collection promoter, Seq ID No: 18 (DNA CTGATGGCTAGCTCAGTCCTAGGGATTATGCTAGC; expressed or natural sequence)	0.01
BBa_J23115: Anderson Promoter Collection promoter, Seq ID No: 20 (DNA TTTATAGCTAGCTCAGCCCTTGGTACAATGCTAGC; expressed or natural sequence)	0.15
BBa_J23114: Anderson Promoter Collection promoter, Seq ID No: 19 (DNA TTTATGGCTAGCTCAGTCCTAGGTACAATGCTAGC; expressed or natural sequence)	0.1
BBa_J23118: Anderson Promoter Collection promoter, Seq ID No: 23 (DNA TTGACGGCTAGCTCAGTCCTAGGTATTGTGCTAGC; expressed or natural sequence)	0.56
BBa_J23100: Anderson Promoter Collection constitutive promoter, Seq ID No: 5 (DNA TTGACGGCTAGCTCAGTCCTAGGTACAGTGCTAGC; expressed or natural sequence)	1
BBa_J23110: Anderson Promoter Collection promoter, Seq ID No: 15 (DNA TTTACGGCTAGCTCAGTCCTAGGTACAATGCTAGC; expressed or natural sequence)	0.33
BBa_J23116: Anderson Promoter Collection promoter, Seq ID No: 21 (DNA TTGACAGCTAGCTCAGTCCTAGGGACTATGCTAGC; expressed or natural sequence)	0.16
BBa_J23104: Anderson Promoter Collection promoter, Seq ID No: 9 (DNA TTGACAGCTAGCTCAGTCCTAGGTATTGTGCTAGC; expressed or natural sequence)	0.72
BBa_J23108: Anderson Promoter Collection promoter, Seq ID No: 13 (DNA CTGACAGCTAGCTCAGTCCTAGGTATAATGCTAGC; expressed or natural sequence)	0.51
BBa_J23106: Anderson Promoter Collection promoter, Seq ID No: 11 (DNA TTTACGGCTAGCTCAGTCCTAGGTATAGTGCTAGC; expressed or natural sequence)	0.47
BBa_J23105: Anderson Promoter Collection promoter, Seq ID No: 10 (DNA TTTACGGCTAGCTCAGTCCTAGGTACTATGCTAGC; expressed or natural sequence)	0.24
BBa_J23101: Anderson Promoter Collection promoter, Seq ID No: 6 (DNA TTTACAGCTAGCTCAGTCCTAGGTATTATGCTAGC; expressed or natural sequence)	0.7
BBa_J23109: Anderson Promoter Collection promoter, Seq ID No: 14 (DNA TTTACAGCTAGCTCAGTCCTAGGGACTGTGCTAGC; expressed or natural sequence)	0.04
BBa_J23117: Anderson Promoter Collection promoter, Seq ID No: 22 (DNA TTGACAGCTAGCTCAGTCCTAGGGATTGTGCTAGC; expressed or natural sequence)	0.06
BBa_J23102: Anderson Promoter Collection promoter, Seq ID No: 7 (DNA TTGACAGCTAGCTCAGTCCTAGGTACTGTGCTAGC; expressed or natural sequence)	0.86
BBa_J23111: Anderson Promoter Collection promoter, Seq ID No: 16 (DNA TTGACGGCTAGCTCAGTCCTAGGTATAGTGCTAGC; expressed or natural sequence)	0.58
BBa_J23103: Anderson Promoter Collection promoter, Seq ID No: 8 (DNA CTGATAGCTAGCTCAGTCCTAGGGATTATGCTAGC; expressed or natural sequence)	0.01

system: A549 human lung cancer cells; settings: not given

Molecule	EC50 cytotoxicity [µg/mL]
O=C(O)c1c[nH]c2ccccc12 [ICA, indole-3-carboxylic acid]	4.6 (≈ 28.5 µM)

system: MCF-7 human breast cancer cells; settings: not given

Molecule	EC50 cytotoxicity [µg/mL]
O=C(O)c1c[nH]c2ccccc12 [ICA, indole-3-carboxylic acid]	12.9 (≈ 80 µM)

system: HIV replication in infected H9 lymphocytes; settings: not given

IC50 inhibition of HIV replication [µg/mL]	Molecule
16.4	O=C(O)c1c[nH]c2ccccc12 [ICA, indole-3-carboxylic acid]
